According to patent US10889620B2, “Solid state forms of linaclotide” (NOVETIDE LTD., priority 2015, dated 2021):
Bridge positions count the residues as written; N and C are the ends. Peptide text beside a SMILES is read from it.

Assays:
[1] = storage for 3 months; 40° C. and 75% relative humidity; from U.S. Pat. No. 8,222,201, Example 3, Table 13; cited from earlier work
[2] = Stability test of solid Linaclotide forms, storage in sealed HDPE bottles at 40° C. and 75% relative humidity, hydrolysis product content; assay type: physicochemical; details: sealed 45 cc. HDPE bottles
Experimental: Linaclotide Form III according to the present invention was subjected to a stability test in accordance with U.S. Pat. No. 8,222,201, Example 3 (storage in sealed 45 cc. high density polyethylene bottles at 40° C. and 75% relative humidity).

[3] = Stability of Linaclotide solutions with and without ethanol, % multimers by HPLC-SEC; assay type: physicochemical; details: RT, sealed vials
Experimental: Solutions of Linaclotide in: (A): a 1:1 mixture of 0.2% AcOH: ACN or (B): a 1:1:9.5 mixture of 0.2% AcOH:ACN:EtOH, were stored for 12 days at room temperature (RT) in sealed vials. The solutions were analysed by (HPLC-size exclusion chromatography) (HPLC-SEC), for % multimers (the major degradants present) content (see table below):
The results are graphically represented in FIG. 6.

## C[C@@H]1NC(=O)[C@@H]2CCCN2C(=O)[C@H](CC(N)=O)NC(=O)[C@@H]2CSSC[C@H](N)C(=O)N[C@H]3CSSC[C@H](NC1=O)C(=O)N[C@@H]([C@@H](C)O)C(=O)NCC(=O)N[C@H](C(=O)N[C@@H](Cc1ccc(O)cc1)C(=O)O)CSSC[C@H](NC(=O)[C@H](Cc1ccc(O)cc1)NC(=O)[C@H](CCC(=O)O)NC3=O)C(=O)N2 [Form alpha, Linaclotide] (H-CCEYCCNPACTGCY-OH; disulfide 1-6, 2-10, 5-13)
[1]
  hydrolysis product (L-Asp Linaclotide impurity) content: 5.7 wt %

## C[C@@H]1NC(=O)[C@@H]2CCCN2C(=O)[C@H](CC(N)=O)NC(=O)[C@@H]2CSSC[C@H](N)C(=O)N[C@H]3CSSC[C@H](NC1=O)C(=O)N[C@@H]([C@@H](C)O)C(=O)NCC(=O)N[C@H](C(=O)N[C@@H](Cc1ccc(O)cc1)C(=O)O)CSSC[C@H](NC(=O)[C@H](Cc1ccc(O)cc1)NC(=O)[C@H](CCC(=O)O)NC3=O)C(=O)N2 [Linaclotide Form III, Linaclotide] (H-CCEYCCNPACTGCY-OH; disulfide 1-6, 2-10, 5-13)
[2]; after 4 weeks
  Linaclotide hydrolysis product (L-Asp Linaclotide impurity) content: 0.22%
[2]; extrapolated to 3 months
  Linaclotide hydrolysis product (L-Asp Linaclotide impurity) content: 0.45 wt %

## C[C@@H]1NC(=O)[C@@H]2CCCN2C(=O)[C@H](CC(N)=O)NC(=O)[C@@H]2CSSC[C@H](N)C(=O)N[C@H]3CSSC[C@H](NC1=O)C(=O)N[C@@H]([C@@H](C)O)C(=O)NCC(=O)N[C@H](C(=O)N[C@@H](Cc1ccc(O)cc1)C(=O)O)CSSC[C@H](NC(=O)[C@H](Cc1ccc(O)cc1)NC(=O)[C@H](CCC(=O)O)NC3=O)C(=O)N2 [Linaclotide] (H-CCEYCCNPACTGCY-OH; disulfide 1-6, 2-10, 5-13)
[3]; solution (A) without EtOH: 1:1 0.2% AcOH:ACN, Day 0
  % Multimers according to HPLC-SEC method: 1.72%
[3]; solution (A) without EtOH: 1:1 0.2% AcOH:ACN, Day 1
  % Multimers according to HPLC-SEC method: 1.87%
[3]; solution (A) without EtOH: 1:1 0.2% AcOH:ACN, Day 2
  % Multimers according to HPLC-SEC method: 1.70%
[3]; solution (A) without EtOH: 1:1 0.2% AcOH:ACN, Day 5
  % Multimers according to HPLC-SEC method: 3.05%
[3]; solution (A) without EtOH: 1:1 0.2% AcOH:ACN, Day 6
  % Multimers according to HPLC-SEC method: 3.75%
[3]; solution (A) without EtOH: 1:1 0.2% AcOH:ACN, Day 7
  % Multimers according to HPLC-SEC method: 3.83%
[3]; solution (A) without EtOH: 1:1 0.2% AcOH:ACN, Day 8
  % Multimers according to HPLC-SEC method: 4.61%
[3]; solution (A) without EtOH: 1:1 0.2% AcOH:ACN, Day 11
  % Multimers according to HPLC-SEC method: 6.47%
[3]; solution (A) without EtOH: 1:1 0.2% AcOH:ACN, Day 12
  % Multimers according to HPLC-SEC method: 7.18%
[3]; solution (B) with EtOH: 1:1:9.5 0.2% AcOH:ACN:EtOH, Day 0
  % Multimers according to HPLC-SEC method: 1.54%
[3]; solution (B) with EtOH: 1:1:9.5 0.2% AcOH:ACN:EtOH, Day 1
  % Multimers according to HPLC-SEC method: 1.66%
[3]; solution (B) with EtOH: 1:1:9.5 0.2% AcOH:ACN:EtOH, Day 2
  % Multimers according to HPLC-SEC method: 2.17%
[3]; solution (B) with EtOH: 1:1:9.5 0.2% AcOH:ACN:EtOH, Day 5
  % Multimers according to HPLC-SEC method: 2.34%
[3]; solution (B) with EtOH: 1:1:9.5 0.2% AcOH:ACN:EtOH, Day 6
  % Multimers according to HPLC-SEC method: 3.22%
[3]; solution (B) with EtOH: 1:1:9.5 0.2% AcOH:ACN:EtOH, Day 7
  % Multimers according to HPLC-SEC method: 3.54%
[3]; solution (B) with EtOH: 1:1:9.5 0.2% AcOH:ACN:EtOH, Day 8
  % Multimers according to HPLC-SEC method: 3.64%
[3]; solution (B) with EtOH: 1:1:9.5 0.2% AcOH:ACN:EtOH, Day 11
  % Multimers according to HPLC-SEC method: 3.62%
[3]; solution (B) with EtOH: 1:1:9.5 0.2% AcOH:ACN:EtOH, Day 12
  % Multimers according to HPLC-SEC method: 4.88%
